Reference: PMC12336229, “Peptide-mimetics derived from leucyl-tRNA synthetase are potential agents for the therapy of mt-tRNA related diseases” (Frontiers in Pharmacology, 2025)

Columns and labels:
[1] = Plasma stability (UPLC-MS); type: in vitro ADME, human; details: 37°C
Description: To assess whether the β32_33 peptide, PMT, PMT-8a and PMT-8b peptide-mimetics are stable in blood, we set up a chromatographic assay able to evaluate compound concentration after incubation in human plasma.
Four different samples from healthy volunteers were used. Blood was drawn by venepuncture in vacutainer containing EDTA as an anticoagulant. Plasma was separated by centrifugation and immediately used for the experiments. Each compound was dissolved in 500 μL plasma at a final concentration of 0.2 mM and split into two aliquots, one of which was immediately analysed to assess the basal compound level (T0); the other was incubated at 37°C under gentle shaking, and the amount of each compound was measured at different time points (i.e., 1.5, 3, 6 and 72 h).
To perform chromatographic analyses, the samples were treated with 3 volumes of acetonitrile containing 1% formic acid and then extracted by using the Ostro™ pass-through sample preparation system to remove proteins and phospholipids. Samples were dried under vacuum, resuspended in 100 μL of 0.1% formic acid containing 5% acetonitrile, and then injected directly onto the chromatographic column.
Chromatographic analyses were performed on a Water Acquity H-Class UPLC system (Waters, Milford, MA, United States), including a quaternary solvent manager (QSM), a sample manager with a flow-through needle system (FTN), a photodiode array detector (PDA) and a single-quadruple mass detector with electrospray ionization source (ACQUITY QDa). Analyses were performed on a reverse phase C18 column (75 mm × 3.2 mm i. d., 2.5 μm particle size). The mobile phase was solvent A, 0.1% formic acid in water, and solvent B, 0.1% formic acid in acetonitrile. The flow rate was 0.5 mL/min, the column temperature was set at 25°C and the elution was performed by linearly increasing the concentration of solvent B up to 70% in 7 min. Mass spectrometric detection was performed in the positive electrospray ionization mode, using nitrogen as the nebulizer gas. Analyses were performed in the Total Ion Current (TIC) mode with a mass range of 100–1200 m/z. The capillary voltage was 0.8 kV, cone voltage 8 V, ion source temperature 120°C and probe temperature 600°C. Quantification was performed by Selected Ion Recording (SIR): at m/z = 917.88, corresponding to the [M+2H]^2+ ion obtained from either β32_33 peptide or PMT; at m/z = 961.42, corresponding to the [M + H] ^+ obtained from PMT-8a; and at m/z = 869.48, corresponding to the [M + H]^+ ion obtained from PMT-8b.

mutant cybrids = assay: Confocal fluorescence microscopy, co-localization with mitochondria (Mitotracker Red); type: cell-based, human
Description: Previously established osteosarcoma-derived (143B.TK-) cybrid cell lines from patients, which bear either the m.3243A>G mutation in mt-tRNA^Leu(UUR) or the m.8344A>G mutation in mt-tRNA^Lys and controls ([Perli et al., 2014]; [Perli et al., 2016]; [Perli et al., 2020]) were used.
Constructs made of compounds listed in Table 1, comprising D-peptides linked to the Cy5 fluorophore via maleimide cross-linker, were administered to sub-confluent cybrid cell cultures at 0.25 µM in glucose medium. About 24 h after treatment with each construct, cells were incubated with 200 nM Mitotracker Red FM (LifeTechnologies Italia, Monza, Italy) for 30 min at 37°C.
Subsequently, cells were visualized by confocal microscopy. Images of 800 × 800 px (at 88 nm/px) were acquired at the Olympus iX83 FluoView1200 laser scanning confocal microscope using a 60 × NA1,35 oil objective (Olympus Italia SRL Milano, Italy), zoom 3×, 559 nm, and 635 nm lasers and filter setting for Mitotracker Red and Cy5. The fluorescence images were analysed with the ImageJ software ([Rasband, 2018]) to determine the Pearson’s correlation coefficient.
For a subset of experiments, we evaluated the mt localization of constructs up to 72 h after treatment. PMT and PMT fragments were administered to sub-confluent cybrids at a concentration of 0.25 µM in the glucose medium. At 24-, 48- and 72-h after treatment, cells were incubated with Mitotracker Red and visualized by confocal microscopy. After each confocal imaging section, a fresh glucose medium was added to the cells, which were maintained under standard conditions (a humidified atmosphere of 95% air and 5% CO2 at 37°C).

## CC[C@@H](C)[C@@H](NC(=O)[C@@H](CC(C)C)NC(=O)[C@@H](C)NC(=O)[C@H](NC(=O)[C@@H](CCCNC(=N)N)NC(=O)[C@H]1CCCN1C(=O)[C@@H](CO)NC(=O)[C@@H](CC(C)C)NC(=O)[C@@H](Cc1ccccc1)NC(=O)[C@@H](CO)NC(=O)[C@@H](CCCCN)NC(=O)[C@H](N)CCCCN)[C@H](C)O)C(=O)N[C@H](CC(N)=O)C(=O)N[C@H](Cc1ccccc1)C(=O)N[C@H](CC(C)C)C(=O)N[C@@H](C(N)=O)C(C)C [PMT]
[1]; 72 h, human EDTA plasma from four healthy volunteers, gentle shaking, UPLC-MS (SIR), peak area vs time 0, read-out: Amount of detectable compound after incubation with human plasma
  remaining at 72 h, 0.2 mM: ~25%
[1]; all time points (1.5, 3, 6, 72 h), human plasma, 0.2 mM, UPLC-MS
  Plasma stability compared with β32_33 peptide: significantly higher plasma stability
Mutant cybrids; Cy5 constructs 0.25 µM in glucose medium, imaged after 24 h, Mitotracker Red, mean ± SEM of at least five images
  Pearson's correlation coefficient (PCC), mt localization: 0.83 ± 0.02
Mutant cybrids; Cy5 constructs 0.25 µM, imaged after 24, 48 and 72 hours
  Mitochondrial localization over time: colocalize with mitochondria up to 72 hours
